Usually EC50 stands for the concentration giving half of the maximal effect.

The text below walks through data of patent US6878751B1, “Administration of resveratrol to treat inflammatory respiratory disorders” (Imperial College of Science Technology and Medicine, priority 2000, dated 2005).

The subject of series [1] is Individuals at risk for ILD. Description: Oral resveratrol for chemoprevention of ILD in individuals at risk (Example 11). The note with it: 2 to 5 years. The series is classed as in vivo, human. On the procedure:
Resveratrol is evaluated clinically for efficacy in chemoprevention of ILD in smokers. The study is generally patterned after the COPD chemoprevention study (Example 10) with modifications appropriate to the clinical and histopathologic evaluation of ILD, and the references listed in the preceding examples may be applied as appropriate. Individuals at risk with no disease or mild COPD are treated once or more per day with gelatin capsules containing resveratrol. A population of individuals at risk for a specific ILD, such as silicosis can be studied, or several such populations such as sand blasters (silicosis) and coal miners can be studied in parallel The different populations are subdivided into subpopulations: clinically and histopathologically disease free, clinically asymptomatic with histopathologic inflammation and mildly ILD symptomatic, meaning some fibrosis but no pulmonary impairment causing hypoxemia or acidosis. […] Patients are medically monitored for clinical symptoms of ILD throughout the study, including onset of symptoms and frequency and severity thereof. […] Forced expiratory volume (FEV) and forced inspiratory volume (FIV) are also evaluated to measure airway patency as a direct measure of clinical morbidity and to determine correlation the histopathologic and other indicators of clinical disease. […]

Another series relates to iNOS mRNA. The series can be described thus: iNOS mRNA expression by RT-PCR in cytomix-treated primary epithelial cells. The series is classed as cell-based, human. The note with it: primary epithelial cells treated 4 hours with cytomix. On the procedure: Human primary epithelial cells are cultured from normal donor tissue. Explant cultures of tissue obtained from normal human lung transplant donors provided human primary epithelial (HPE) cells. The HPE cells were cultured in Ham's F12 nutrient medium containing 5% (v/v) fetal calf serum (FCS), 1 μM hydrocortisone, 5 ng/ml EGF (epithelial growth factor), 10 μg/ml insulin, 10 nM retinoic acid, 0.5 μg/ml transferrin, 2 μg/ml triiodothyronine, 1.5 μg/ml NaHCO3, 100 μg/ml penicillin, 100 μg/ml streptomycin and 0.25 μg/m amphotericin B; the cells were incubated at 37° C. in a humidified atmosphere containing 95% (v/v) air, 5% (v/v) CO2. The HPE cells were cultured for the last 24 hours prior to the experimental treatments under the same conditions except that additive free Ham's F12 media was substituted for the supplemented Ham's F12 media described above.
Expression of mRNA for iNOS was evaluated by RT-PCR of RNA extracted from the cells using the Qiagen RNeasy mini kit as directed by the manufacturer (Crawley, Sussex, U.K.). RT-PCR was performed according to routine methods. […]

Series [2] relates to TRE dependent transcription. Description: TRE (AP-1) luciferase reporter in stably transfected A549 cells. The series is classed as cell-based, human. On the procedure:
The expression of inflammatory genes was then evaluated in cells transformed with luciferase reporter genes containing sites for transcription factors (Tf, Tfs). The A549 cells were stably transfected by routine methods with luciferase reporters containing the transcription factors NF-κB, TRE (AP-1, TPA responsive element) and CRE (cAMP responsive element). Luciferase activity of cell lysates resuspended in […] cell lysis buffer mixed (40 mml resuspended lysate: 40 mml assay reagent) was measured using the Luciferase Assay System (Promega), with emitted light measured by a Turner DesignsTD-20/20 luminometer (Steptech Instruments Ltd., Stevenage, U.K.)
For orientation: A reporter such as luciferase makes a cellular process visible.

Turning to `Oc1ccc(/C=C/c2cc(O)cc(O)c2)cc1` [Resveratrol, 3,5,4′-trihydroxystilbene], the side effects entry in series [1] (oral, relative to those expected from steroid administration) is “without significant side effects”. Moreover, the “efficacy in chemoprevention of ILD” value in series [1] (oral, 200, 2000 or 3000 mg/day) was “effective for chemoprevention of ILD”. In addition, in the series on iNOS mRNA, the “inhibition of iNOS expression as measured by mRNA” value is listed as “inhibited iNOS expression”. In addition, the “extent of inhibition of TRE dependent transcription” value in series [2] is recorded as 85%. In series [2] (Homo sapiens, read-out: EC50 for inhibition of TRE dependent transcription), the 50% effective concentration (EC50) was 7 ± 4 µM.
